This assay deals with L1210 leukemia ip in BDF1 mice, survival T/C. The experiment in a line: NCI In Vivo Anticancer Drug Screen. Data for tumor model L1210 Leukemia (intraperitoneal) in B6D2F1 (BDF1) mice. Conditions: higher = longer survival. Summed up: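 Read-out is survival time, reported as the treated-group measurement over the vehicle-control measurement.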
Where [1] appears, read: endpoint: mean survival time, dose: 100.0 mg/kg/injection, schedule: Q01DX001 (ip), vehicle: carboxymethylcellulose (CMC).
[2] abbreviates: endpoint: mean survival time, dose: 200.0 mg/kg/injection, schedule: Q01DX001 (ip), vehicle: carboxymethylcellulose (CMC).
[3] abbreviates: endpoint: mean survival time, dose: 400.0 mg/kg/injection, schedule: Q01DX001 (ip), vehicle: carboxymethylcellulose (CMC).

Where “and” joins values, the source holds several entries; their conditions need not be identical. Identical values can stand only once. Inconclusive results and toxic doses are left out.

`S=P(N1CC1)(N1CC1)N1CC1`: the T/C was 103 % of control and 104 % of control (endpoint: mean survival time, dose: 0.19 mg/kg/injection, schedule: Q01DX009 (ip), vehicle: saline); 106 % of control (endpoint: mean survival time, dose: 0.3 mg/kg/injection, schedule: Q01DX Z (ip), vehicle: carboxymethylcellulose (CMC)); 104 % of control and 111 % of control (endpoint: mean survival time, dose: 0.38 mg/kg/injection, schedule: Q01DX009 (ip), vehicle: saline); 101 % of control (endpoint: mean survival time, dose: 0.6 mg/kg/injection, schedule: Q01DX Z (ip), vehicle: carboxymethylcellulose (CMC)); 107 % of control and 120 % of control (endpoint: mean survival time, dose: 0.75 mg/kg/injection, schedule: Q01DX009 (ip), vehicle: saline); 95 % of control (2×) and 119 % of control (endpoint: mean survival time, dose: 1.0 mg/kg/injection, schedule: Q01DX001 (ip), vehicle: saline). Further, the T/C is 98 % of control and 105 % of control (endpoint: mean survival time, dose: 1.0 mg/kg/injection, schedule: Q01DX001 (oral), vehicle: saline); 98 % of control and 119 % of control (endpoint: mean survival time, dose: 1.0 mg/kg/injection, schedule: Q01DX009 (ip), vehicle: saline); 102 % of control and 121 % of control (endpoint: mean survival time, dose: 1.0 mg/kg/injection, schedule: Q04DX002 (ip), vehicle: saline); 96 % of control and 104 % of control and 116 % of control (endpoint: mean survival time, dose: 1.0 mg/kg/injection, schedule: Q04DX003 (ip), vehicle: saline); 109 % of control (endpoint: mean survival time, dose: 1.2 mg/kg/injection, schedule: Q01DX Z (ip), vehicle: carboxymethylcellulose (CMC)); 118 % of control (endpoint: mean survival time, dose: 1.25 mg/kg/injection, schedule: Q01DX Z (ip), vehicle: saline). Moreover, the T/C by setting is: (endpoint: mean survival time, dose: 1.5 mg/kg/injection, schedule: Q01DX010 (oral), vehicle: carboxymethylcellulose (CMC)) 113 % of control; (endpoint: mean survival time, dose: 1.56 mg/kg/injection, schedule: Q01DX009 (ip), vehicle: saline) 102 % of control and 117 % of control; (endpoint: mean survival time, dose: 1.65 mg/kg/injection, schedule: Q01DX001 (ip), vehicle: saline) 104 % of control; (endpoint: mean survival time, dose: 2.0 mg/kg/injection, schedule: Q01DX001 (ip), vehicle: saline) 97 % of control and 103 % of control and 114 % of control; (endpoint: mean survival time, dose: 2.0 mg/kg/injection, schedule: Q01DX001 (oral), vehicle: saline) 98 % of control and 102 % of control; (endpoint: mean survival time, dose: 2.0 mg/kg/injection, schedule: Q01DX009 (ip), vehicle: saline) 108 % of control. Further, the T/C is 101 % of control and 107 % of control (endpoint: mean survival time, dose: 2.0 mg/kg/injection, schedule: Q04DX002 (ip), vehicle: saline); 102 % of control and 109 % of control and 116 % of control (endpoint: mean survival time, dose: 2.0 mg/kg/injection, schedule: Q04DX003 (ip), vehicle: saline); 121 % of control and 123 % of control (endpoint: mean survival time, dose: 2.4 mg/kg/injection, schedule: Q01DX Z (ip), vehicle: carboxymethylcellulose (CMC)); 110 % of control (endpoint: mean survival time, dose: 2.5 mg/kg/injection, schedule: Q01DX001 (ip), vehicle: saline); 120 % of control (endpoint: mean survival time, dose: 2.5 mg/kg/injection, schedule: Q01DX Z (ip), vehicle: saline); 106 % of control (endpoint: mean survival time, dose: 3.0 mg/kg/injection, schedule: Q01DX001 (ip), vehicle: saline). Besides, the T/C is, setting by setting: (endpoint: mean survival time, dose: 3.0 mg/kg/injection, schedule: Q01DX010 (oral), vehicle: carboxymethylcellulose (CMC)) 115 % of control; (endpoint: mean survival time, dose: 3.6 mg/kg/injection, schedule: Q01DX Z (ip), vehicle: carboxymethylcellulose (CMC)) 118 % of control; (endpoint: mean survival time, dose: 3.8 mg/kg/injection, schedule: Q01DX001 (ip), vehicle: saline) 110 % of control; (endpoint: mean survival time, dose: 4.0 mg/kg/injection, schedule: Q01DX001 (ip), vehicle: saline) 97 % of control and 106 % of control and 111 % of control; (endpoint: mean survival time, dose: 4.0 mg/kg/injection, schedule: Q01DX001 (oral), vehicle: saline) 101 % of control and 105 % of control; (endpoint: mean survival time, dose: 4.0 mg/kg/injection, schedule: Q01DX009 (ip), vehicle: saline) 160 % of control and 161 % of control and 191 % of control. The T/C (endpoint: mean survival time, dose: 5.0 mg/kg/injection, schedule: Q01DX Z (ip), vehicle: saline) was 102 % of control; the T/C (endpoint: mean survival time, dose: 5.7 mg/kg/injection, schedule: Q01DX001 (ip), vehicle: saline) was 111 % of control; the T/C (endpoint: mean survival time, dose: 6.0 mg/kg/injection, schedule: Q01DX001 (ip), vehicle: saline) is 113 % of control and 123 % of control; the T/C (endpoint: mean survival time, dose: 6.25 mg/kg/injection, schedule: Q01DX009 (ip), vehicle: saline) is 178 % of control; the T/C (endpoint: mean survival time, dose: 7.5 mg/kg/injection, schedule: Q01DX001 (ip), vehicle: saline) was 106 % of control and 118 % of control; the T/C (endpoint: mean survival time, dose: 8.0 mg/kg/injection, schedule: Q01DX001 (oral), vehicle: saline) was 105 % of control and 117 % of control. For the same molecule, the T/C is, setting by setting: (endpoint: mean survival time, dose: 8.0 mg/kg/injection, schedule: Q01DX009 (ip), vehicle: saline) 107 % of control and 113 % of control; (endpoint: mean survival time, dose: 8.0 mg/kg/injection, schedule: Q04DX003 (ip), vehicle: saline) 150 % of control and 179 % of control; (endpoint: mean survival time, dose: 8.7 mg/kg/injection, schedule: Q01DX001 (ip), vehicle: saline) 161 % of control; (endpoint: mean survival time, dose: 11.0 mg/kg/injection, schedule: Q01DX001 (ip), vehicle: saline) 122 % of control; (endpoint: mean survival time, dose: 12.0 mg/kg/injection, schedule: Q01DX009 (ip), vehicle: saline) 95 % of control and 100 % of control; (endpoint: mean survival time, dose: 12.0 mg/kg/injection, schedule: Q01DX010 (oral), vehicle: carboxymethylcellulose (CMC)) 166 % of control. Besides, the T/C was 118 % of control (endpoint: mean survival time, dose: 12.5 mg/kg/injection, schedule: Q01DX009 (ip), vehicle: saline); 109 % of control (endpoint: mean survival time, dose: 14.0 mg/kg/injection, schedule: Q01DX001 (ip), vehicle: saline); 163 % of control and 201 % of control (endpoint: mean survival time, dose: 15.0 mg/kg/injection, schedule: Q01DX001 (ip), vehicle: saline); 121 % of control (endpoint: mean survival time, dose: 16.0 mg/kg/injection, schedule: Q01DX001 (oral), vehicle: saline); 104 % of control (endpoint: mean survival time, dose: 16.0 mg/kg/injection, schedule: Q04DX003 (ip), vehicle: saline); 152 % of control and 155 % of control and 163 % of control (endpoint: mean survival time, dose: 17.0 mg/kg/injection, schedule: Q01DX001 (ip), vehicle: saline). In addition, the T/C by setting is: (endpoint: mean survival time, dose: 20.0 mg/kg/injection, schedule: Q01DX001 (ip), vehicle: saline) 163 % of control; (endpoint: mean survival time, dose: 22.0 mg/kg/injection, schedule: Q01DX001 (ip), vehicle: saline) 191 % of control; (endpoint: mean survival time, dose: 23.0 mg/kg/injection, schedule: Q01DX001 (ip), vehicle: saline) 150 % of control; (endpoint: mean survival time, dose: 24.0 mg/kg/injection, schedule: Q01DX010 (oral), vehicle: carboxymethylcellulose (CMC)) 152 % of control; (endpoint: mean survival time, dose: 32.0 mg/kg/injection, schedule: Q04DX002 (ip), vehicle: saline) 94 % of control; (endpoint: median survival time, dose: 1.5 mg/kg/injection, schedule: Q01DX009 (ip), vehicle: distilled water + alcohol) 103 % of control. In addition, the T/C is, setting by setting: (endpoint: median survival time, dose: 1.5 mg/kg/injection, schedule: Q01DX009 (ip), vehicle: other) 94 % of control; (endpoint: median survival time, dose: 4.0 mg/kg/injection, schedule: Q01DX009 (ip), vehicle: water) 151 % of control; (endpoint: median survival time, dose: 5.0 mg/kg/injection, schedule: Q01DX009 (ip), vehicle: water) 108 % of control; (endpoint: median survival time, dose: 6.0 mg/kg/injection, schedule: Q01DX009 (ip), vehicle: water) 110 % of control.
Turning to `CC(=O)Nc1cc([N+](=O)[O-])ccc1CC(O)c1ccccc1Cl` (stereo not given), the T/C (endpoint: mean survival time, dose: 100.0 mg/kg/injection, schedule: Q01DX009 (ip), vehicle: Klucel (hydroxypropylcellulose) (HPC)) was 92 % of control; the T/C (endpoint: mean survival time, dose: 100.0 mg/kg/injection, schedule: Q04DX003 (ip), vehicle: Klucel (hydroxypropylcellulose) (HPC)) is 97 % of control; the T/C (endpoint: mean survival time, dose: 200.0 mg/kg/injection, schedule: Q01DX009 (ip), vehicle: Klucel (hydroxypropylcellulose) (HPC)) is 103 % of control; the T/C (endpoint: mean survival time, dose: 200.0 mg/kg/injection, schedule: Q04DX003 (ip), vehicle: Klucel (hydroxypropylcellulose) (HPC)) is 108 % of control; the T/C (endpoint: mean survival time, dose: 400.0 mg/kg/injection, schedule: Q01DX009 (ip), vehicle: Klucel (hydroxypropylcellulose) (HPC)) was 104 % of control; the T/C (endpoint: mean survival time, dose: 400.0 mg/kg/injection, schedule: Q04DX003 (ip), vehicle: Klucel (hydroxypropylcellulose) (HPC)) was 103 % of control.
As to `Cc1cccc(N2P(N(C)C)N(c3cccc(C)c3)P2(=O)N(C)C)c1` (stereo not given), the T/C (endpoint: mean survival time, dose: 100.0 mg/kg/injection, schedule: Q04DX002 (ip), vehicle: Klucel (hydroxypropylcellulose) (HPC)) was 97 % of control; the T/C (endpoint: mean survival time, dose: 200.0 mg/kg/injection, schedule: Q04DX002 (ip), vehicle: Klucel (hydroxypropylcellulose) (HPC)) is 111 % of control; the T/C (endpoint: mean survival time, dose: 400.0 mg/kg/injection, schedule: Q04DX002 (ip), vehicle: Klucel (hydroxypropylcellulose) (HPC)) was 94 % of control.
In the case of `c1cc[n+]2c(c1)-c1cccc[n+]1CCC2`, the T/C under setting [1] is 94 % of control, the T/C under setting [2] is 101 % of control and the T/C under setting [3] is 92 % of control.
For the molecule `CCOC(=O)C=C1CCP(C)CC1` (stereo not given), the T/C is, setting by setting: (endpoint: mean survival time, dose: 75.0 mg/kg/injection, schedule: Q01DX001 (ip), vehicle: carboxymethylcellulose (CMC)) 103 % of control; (endpoint: mean survival time, dose: 150.0 mg/kg/injection, schedule: Q01DX001 (ip), vehicle: carboxymethylcellulose (CMC)) 94 % of control.
Consider `COC(=O)C1=C(\N2CCOCC2)CCCC/C=C\1C(=O)OC`, for which the T/C is, setting by setting: under setting [1], 108 % of control; under setting [2], 105 % of control; under setting [3], 102 % of control.

The values above are taken from PubChem BioAssay AID248 (DTP/NCI, 2004).
